Article PMC7127853 (Bioorganic & Medicinal Chemistry, 2011)

Legend:
[1] = tested on: human embryonic lung (HEL) fibroblasts; assay: Cytotoxicity, cell morphology; type: cell-based; conditions: HEL cells; minimum cytotoxic concentration altering cell morphology
[2] = tested on: Reovirus-1; assay: Antiviral assay, Reovirus-1 in Vero cells; type: cell-based; conditions: read-out: Antiviral activity: EC50 Reovirus-1 (Vero)
[3] = tested on: African green monkey cells (Vero); assay: Cytotoxicity, cell morphology; type: cell-based
[4] = tested on: Madin Darby canine kidney cells (MDCK); assay: Cytotoxicity, cell morphology; type: cell-based
[5] = tested on: HIV-1 (IIIB); assay: Anti-HIV-1 assay in CEM cells; type: cell-based, human immunodeficiency virus type 1; conditions: compared with HDP–PMEA of ref [12]
[6] = tested on: human cytomegalovirus (HCMV) strain AD-169; assay: Antiviral assay, HCMV AD-169 in HEL cells; type: cell-based; conditions: compared with TDP/HDP (S)-HPMPC of ref [11]

SMILES	Cytotoxicity Cell morphology (MCC) (HEL) [1] [μM]	EC50 [2] [µM]	Cytotoxicity Cell morphology (MCC) MDCK [4] [μM]	further results
Nc1ccn(C[C@@H](CO)OCP(=O)(O)O)c(=O)n1.O.O [(S)-HPMPC, Cidofovir]	>317			
Nc1nc2c(ncn2COCCO)c(=O)[nH]1 [Acyclovir]	>222			
O=c1[nH]c(=O)n([C@H]2C[C@H](O)[C@@H](CO)O2)cc1/C=C/Br [Brivudin]	>150			
Nc1ncnc2c1ncn2CCOCP(=O)(OCCCCCCCCCCO)OCCCCCCCCCCO [Compound 5, Bis(10-Hydroxydecyl) ester of 9-[2-(phosphonomethoxy)ethyl]adenine]		> 34		
Nc1ncnc2c1ncn2CCOCP(=O)(OCCOCCCCCCCCCCO)OCCOCCCCCCCCCCO [Compound 9, Bis{2-[(10-Hydroxydecyl)oxy]ethyl} ester of 9-[2-(phosphonomethoxy)ethyl]adenine]	148	> 29.7	29.7	Cytotoxicity Cell morphology (MCC) Vero [3]: 148 μM
CCOCCOCCOCCOCCOCCOCCOP(=O)(O)COCCn1cnc2c(N)ncnc21 [Compound 12, 3,6,9,12,15,18-Hexaoxaeicosyl ester of 9-[2-(phosphonomethoxy)ethyl]adenine]				Loss of anti-HIV activity compared to HDP–PMEA [5]: > 10^7 fold
Nc1ccn(C[C@@H](CO)OCP(=O)(O)OCCOCCOCCOCCOCCOCCO)c(=O)n1 [Compound 16, 14-Hydroxy-3,6,9,12-tetraoxaheptadecyl ester of (S)-1-[3-hydroxy-2-(phophonomethoxy)propyl]cytosine]				Drop of activity against CMV versus analogous simple alkoxyalkyl ester [6]: 400- to 1000 fold
Nc1nc(O)c2ncn(COC(CO)CO)c2n1 [Ganciclovir]	>392			
CCOC(=O)C1=C[C@@H](OC(CC)CC)[C@H](NC(C)=O)[C@@H](N)C1 [Oseltamivir]			>100	
NC(=O)c1ncn([C@@H]2O[C@H](CO)[C@@H](O)[C@H]2O)n1 [Ribavirin, reference compound]		≥ 174	>100	
